From patent publication US20250049035A1, “MICROBIOCIDAL BICYCLE HETEROCYCLIC DERIVATIVES” (SYNGENTA CROP PROTECTION AG, priority 2021, published 2025)

How the values were obtained:
[1] = test system: Phaeosphaeria nodorum (Septoria nodorum); assay: Phaeosphaeria nodorum (Septoria nodorum) / wheat / leaf disc preventative (glume blotch); format: in vivo; details: Parastagonospora nodorum, foliar, wheat leaf segments cv. Kanzler, inoculated 2 days after application, assessed 5-7 days after application, compared to untreated control
Description: Example B8: Phaeosphaeria Nodorum (Septoria nodorum)/Wheat/Leaf Disc Preventative (Glume Blotch) Wheat leaf segments cv. Kanzler are placed on agar in a multiwell plate (24-well format) and sprayed with the formulated test compound diluted in water. The leaf disks are inoculated with a spore suspension of the fungus 2 days after application. The inoculated test leaf disks are incubated at 20° C. and 75% relative humidity under a light regime of 12 h light/12 h darkness in a climate cabinet and the activity of a compound is assessed as percent disease control compared to untreated when an appropriate level of disease damage appears in untreated check leaf disks (5-7 days after application).

[2] = test system: Botryotinia fuckeliana (Botrytis cinerea); assay: Botryotinia fuckeliana (Botrytis cinerea) / liquid culture (gray mould); format: cell-based; details: liquid culture (Vogels broth), growth inhibition photometrically 3-4 days after application, compared to untreated control
Description: Example B2: Botryotinia fuckeliana (Botrytis cinerea)/Liquid Culture (Gray Mould) Conidia of the fungus from cryogenic storage are directly mixed into a nutrient broth (Vogels broth). After placing a DMSO solution of test compound into a microtiter plate (96-well format), the nutrient broth containing the fungal spores is added. The test plates are incubated at 24° C. and the inhibition of growth is determined photometrically 3-4 days after application.

[3] = test system: Glomerella lagenarium (Colletotrichum lagenarium); assay: Glomerella lagenarium (Colletotrichum lagenarium) / liquid culture (anthracnose); format: cell-based; details: Colletotrichum orbiculare, liquid culture (potato dextrose broth), growth inhibition photometrically 3-4 days after application, compared to untreated control
Description: Example B3: Glomerella lagenarium (Colletotrichum lagenarium)/Liquid Culture (Anthracnose) Conidia of the fungus from cryogenic storage are directly mixed into a nutrient broth (potato dextrose broth). After placing a DMSO solution of test compound into a microtiter plate (96-well format), the nutrient broth containing the fungal spores is added. The test plates are incubated at 24° C. and the inhibition of growth is measured photometrically 3-4 days after application.

Alternaria solani = Alternaria solani / tomato / leaf disc (early blight); format: in vivo; details: foliar, tomato leaf disks cv. Baby, inoculated 2 days after application, assessed 5-7 days after application, compared to untreated control
Description: Example B1: Alternaria solani/Tomato/Leaf Disc (Early Blight) Tomato leaf disks cv. Baby are placed on agar in multiwell plates (24-well format) and sprayed with the formulated test compound diluted in water. The leaf disks are inoculated with a spore suspension of the fungus 2 days after application. The inoculated leaf disks are incubated at 23° C./21° C.

[4] = test system: Monographella nivalis (Microdochium nivale); assay: Monographella nivalis (Microdochium nivale) / liquid culture (foot rot cereals); format: cell-based; details: liquid culture (potato dextrose broth), growth inhibition photometrically 4-5 days after application, compared to untreated control
Description: Example B9: Monographella nivalis (Microdochium nivale)/Liquid Culture (Foot Rot Cereals) Conidia of the fungus from cryogenic storage are directly mixed into a nutrient broth (potato dextrose broth). After placing a DMSO solution of test compound into a microtiter plate (96-well format), the nutrient broth containing the fungal spores is added. The test plates are incubated at 24° C. and the inhibition of growth is determined photometrically 4-5 days after application.

[5] = test system: Mycosphaerella arachidis (Cercospora arachidicola); assay: Mycosphaerella arachidis (Cercospora arachidicola) / liquid culture (early leaf spot); format: cell-based; details: liquid culture (potato dextrose broth), growth inhibition photometrically 4-5 days after application, compared to untreated control
Description: Example B10: Mycosphaerella arachidis (Cercospora arachidicola)/Liquid Culture (Early Leaf Spot) Conidia of the fungus from cryogenic storage are directly mixed into a nutrient broth (potato dextrose broth) After placing a DMSO solution of test compound into a microtiter plate (96-well format), the nutrient broth containing the fungal spores is added. The test plates are incubated at 24° C. and the inhibition of growth is determined photometrically 4-5 days after application.

[6] = test system: Mycosphaerella graminicola (Septoria tritici); assay: Mycosphaerella graminicola (Septoria tritici) / liquid culture (Septoria blotch); format: cell-based; details: Zymoseptoria tritici, liquid culture (potato dextrose broth), growth inhibition photometrically 4-5 days after application, compared to untreated control
Description: Example B15: Mycosphaerella graminicola (Septoria tritici/Liquid Culture (Septoria Blotch) Conidia of the fungus from cryogenic storage are directly mixed into a nutrient broth (potato dextrose broth). After placing a DMSO solution of test compound into a microtiter plate (96-well format), the nutrient broth containing the fungal spores is added. The test plates are incubated at 24° C. and the inhibition of growth is determined photometrically 4-5 days after application.

Sclerotinia sclerotiorum = Sclerotinia sclerotiorum / liquid culture (cottony rot); format: cell-based; details: liquid culture (potato dextrose broth), growth inhibition photometrically 3-4 days after application, compared to untreated control
Description: Example B14: Sclerotinia sclerotiorum/Liquid Culture (Cottony Rot) Mycelia fragments of a newly grown liquid culture of the fungus are directly mixed into a nutrient broth (potato dextrose broth). After placing a DMSO solution of test compound into a microtiter plate (96-well format) the nutrient broth containing the fungal material is added. The test plates are incubated at 24° C. and the inhibition of growth is determined photometrically 3-4 days after application.

Fusarium culmorum = assay: microbe, parasite or virus in culture; format: cell-based; details: read-out: control of Fusarium culmorum
Pyrenophora teres = Pyrenophora teres / barley / leaf disc preventative (net blotch); format: in vivo; details: foliar, barley leaf segments cv. Hasso, inoculated 2 days after application, assessed 5-7 days after application, compared to untreated control
Description: Example B12: Pyrenophora teres/Barley/Leaf Disc Preventative (Net Blotch) Barley leaf segments cv. Hasso are placed on agar in a multiwell plate (24-well format) and sprayed with the formulated test compound diluted in water. The leaf segments are inoculated with a spore suspension of the fungus 2 days after application. The inoculated leaf segments are incubated at 20° C. and 65% relative humidity under a light regime of 12 h light/12 h darkness in a climate cabinet and the activity of a compound is assessed as disease control compared to untreated when an appropriate level of disease damage appears in untreated check leaf segments (5-7 days after application).

[7] = test system: Blumeria graminis f. sp. tritici (Erysiphe graminis f. sp. tritici); assay: Blumeria graminis f. sp. tritici / wheat / leaf disc preventative (powdery mildew); format: in vivo; details: foliar, wheat leaf segments cv. Kanzler, inoculated 1 day after application, assessed 6-8 days after application, compared to untreated control
Description: Example B4: Blumeria graminis f. sp. tritici (Erysiphe graminis f. sp. tritici)/Wheat/Leaf Disc Preventative (Powdery Mildew on Wheat) Wheat leaf segments cv. Kanzler are placed on agar in a multiwell plate (24-well format) and sprayed with the formulated test compound diluted in water. The leaf disks are inoculated by shaking powdery mildew infected plants above the test plates 1 day after application. The inoculated leaf disks are incubated at 20° C. and 60% relative humidity under a light regime of 24 h darkness followed by 12 h light/12 h darkness in a climate chamber and the activity of a compound is assessed as percent disease control compared to untreated when an appropriate level of disease damage appears on untreated check leaf segments (6-8 days after application).

C[C@H]1c2sccc2[C@@](C)(c2cnn(C)c2)CN1C(=O)c1nnc(-c2ccc(F)cc2F)s1 (racemic) [Compound P-10, [5-(2,4-difluorophenyl)-1,3,4-thiadiazol-2-yl]-[rac-(4S,7R)-4,7-dimethyl-4-(1-methylpyrazol-4-yl)-5,7-dihydrothieno[2,3-c]pyridin-6-yl]methanone]
≥ 80%: pest or weed control at 200 ppm [1] | inhibition of growth at 20 ppm [2] | inhibition of growth at 20 ppm [3] | pest or weed control at 200 ppm (Alternaria solani) | inhibition of growth at 20 ppm [4] | inhibition of growth at 20 ppm [5] | inhibition of growth at 20 ppm [6] | inhibition of growth at 20 ppm (Sclerotinia sclerotiorum) | inhibition of growth at 20 ppm (Fusarium culmorum)

C[C@H]1c2sccc2[C@@](C)(c2cnn(C)c2)CN1C(=O)c1cc(-c2ccc(F)cc2F)on1 (racemic) [Compound P-12, [5-(2,4-difluorophenyl)isoxazol-3-yl]-[rac-(4S,7R)-4,7-dimethyl-4-(1-methylpyrazol-4-yl)-5,7-dihydrothieno[2,3-c]pyridin-6-yl]methanone]
≥ 80%: pest or weed control at 200 ppm [1] | inhibition of growth at 20 ppm [2] | inhibition of growth at 20 ppm [3] | pest or weed control at 200 ppm (Alternaria solani) | inhibition of growth at 20 ppm [4] | inhibition of growth at 20 ppm [5] | inhibition of growth at 20 ppm [6] | inhibition of growth at 20 ppm (Sclerotinia sclerotiorum)

Cn1cc(C2(C)CN(C(=O)c3cc(-c4ccc(F)cc4F)on3)Cc3sccc32)cn1 (stereo not shown) [Compound P-19, [5-(2,4-difluorophenyl)isoxazol-3-yl]-[4-methyl-4-(1-methylpyrazol-4-yl)-5,7-dihydrothieno[2,3-c]pyridin-6-yl]methanone]
≥ 80%: pest or weed control at 200 ppm (Pyrenophora teres) | pest or weed control at 200 ppm [1] | inhibition of growth at 20 ppm [2] | inhibition of growth at 20 ppm [3] | pest or weed control at 200 ppm (Alternaria solani) | inhibition of growth at 20 ppm [5] | inhibition of growth at 20 ppm [6] | inhibition of growth at 20 ppm (Sclerotinia sclerotiorum) | pest or weed control at 200 ppm [7]

Cn1cc(C2(C)CN(C(=O)c3nnc(-c4ccc(F)cc4F)s3)Cc3ccsc32)cn1 (stereo not shown) [Compound P-22, [5-(2,4-difluorophenyl)-1,3,4-thiadiazol-2-yl]-[7-methyl-7-(1-methylpyrazol-4-yl)-4,6-dihydrothieno[3,2-c]pyridin-5-yl]methanone]
≥ 80%: pest or weed control at 200 ppm (Pyrenophora teres) | pest or weed control at 200 ppm [1] | inhibition of growth at 20 ppm [2] | inhibition of growth at 20 ppm [3] | inhibition of growth at 20 ppm [4] | inhibition of growth at 20 ppm [5] | inhibition of growth at 20 ppm [6]

Cc1c(C2CN(C(=O)c3cc(-c4ccc(F)cc4F)on3)Cc3nnsc32)cnn1C (stereo not shown) [Compound P-27, [5-(2,4-difluorophenyl)isoxazol-3-yl]-[7-(1,5-dimethylpyrazol-4-yl)-6,7-dihydro-4H-thiadiazolo[4,5-c]pyridin-5-yl]methanone]
≥ 80%: pest or weed control at 200 ppm (Pyrenophora teres) | pest or weed control at 200 ppm [1] | inhibition of growth at 20 ppm [3] | pest or weed control at 200 ppm (Alternaria solani) | inhibition of growth at 20 ppm [4] | inhibition of growth at 20 ppm [6] | pest or weed control at 200 ppm [7]

Cc1c(C2CN(C(=O)c3cc(-c4ccc(F)cc4)on3)Cc3sccc32)cnn1C (stereo not shown) [Compound P-30, [4-(1,5-dimethylpyrazol-4-yl)-5,7-dihydro-4H-thieno[2,3-c]pyridin-6-yl]-[5-(4-fluorophenyl)isoxazol-3-yl]methanone]
≥ 80%: pest or weed control at 200 ppm (Pyrenophora teres) | pest or weed control at 200 ppm [1] | inhibition of growth at 20 ppm [2] | inhibition of growth at 20 ppm [3] | pest or weed control at 200 ppm (Alternaria solani) | inhibition of growth at 20 ppm [4] | inhibition of growth at 20 ppm [5] | inhibition of growth at 20 ppm [6] | inhibition of growth at 20 ppm (Sclerotinia sclerotiorum)

Cc1c(C2CN(C(=O)c3cc(-c4ccccc4F)on3)Cc3sccc32)cnn1C (stereo not shown) [Compound P-31, [4-(1,5-dimethylpyrazol-4-yl)-5,7-dihydro-4H-thieno[2,3-c]pyridin-6-yl]-[5-(2-fluorophenyl)isoxazol-3-yl]methanone]
≥ 80%: pest or weed control at 200 ppm (Pyrenophora teres) | pest or weed control at 200 ppm [1] | inhibition of growth at 20 ppm [2] | inhibition of growth at 20 ppm [3] | pest or weed control at 200 ppm (Alternaria solani) | inhibition of growth at 20 ppm [4] | inhibition of growth at 20 ppm [5] | inhibition of growth at 20 ppm [6]

Cc1c(C2CN(C(=O)c3cc(-c4ccccc4F)on3)Cc3ccsc32)cnn1C (stereo not shown) [Compound P-35, [7-(1,5-dimethylpyrazol-4-yl)-6,7-dihydro-4H-thieno[3,2-c]pyridin-5-yl]-[5-(2-fluorophenyl)isoxazol-3-yl]methanone]
≥ 80%: pest or weed control at 200 ppm [7]
